Source: ChEMBL document CHEMBL3526097, “Preclinical disposition of GDC-0973 and prospective and retrospective analysis of human dose and efficacy predictions” (Drug Metab Dispos, 2012)
One block for each compound: values may come before it.

What was measured:
[1] = Efflux ratio of permeability from […] side in MDCK1 cells expressing MDR1 at 10 uM after 2 hrs by LC-MS/MS analysis; format: ADME, cell-based, Canis lupus familiaris; settings: dog, mdck1, 2 h
Liver [2] = assay: Drug uptake in Long-Evans rat liver at 30 mg/kg, po after 2 hrs by autoradiography; format: ADME, organism-based; set-up: dose 30 mg/kg, route oral; settings: in vivo
Large intestine = assay: Drug uptake in Long-Evans rat large intestine at 30 mg/kg, po after 2 hrs by autoradiography; format: ADME, organism-based; set-up: dose 30 mg/kg, route oral; settings: in vivo
Lung = assay: Drug uptake in Long-Evans rat lung at 30 mg/kg, po after 2 hrs by autoradiography; format: ADME, organism-based; set-up: dose 30 mg/kg, route oral; settings: in vivo
Adrenal gland = assay: Drug uptake in Long-Evans rat adrenal gland at 30 mg/kg, po after 2 hrs by autoradiography; format: ADME, organism-based; set-up: dose 30 mg/kg, route oral; settings: in vivo
[3] = Drug uptake in Long-Evans rat lacrimal gland at 30 mg/kg, po after 2 hrs by autoradiography; format: ADME, organism-based, Lachrymal gland; set-up: dose 30 mg/kg, route oral; settings: in vivo
Cerebrum = assay: Drug uptake in Long-Evans rat cerebrum at 30 mg/kg, po after 4 hrs by autoradiography; format: ADME, organism-based; set-up: dose 30 mg/kg, route oral; settings: in vivo
Liver [4] = assay: Drug uptake in Long-Evans rat liver at 30 mg/kg, po after 72 hrs by autoradiography; format: ADME, organism-based; set-up: dose 30 mg/kg, route oral; settings: in vivo
Kidney = assay: Drug uptake in Long-Evans rat kidney at 30 mg/kg, po after 72 hrs by autoradiography; format: ADME, organism-based; set-up: dose 30 mg/kg, route oral; settings: in vivo
Intestine = assay: Drug uptake in Long-Evans rat intestine at 30 mg/kg, po after 72 hrs by autoradiography; format: ADME, organism-based; set-up: dose 30 mg/kg, route oral; settings: in vivo
[5] = Drug uptake in Long-Evans rat melanin containing tissue at 30 mg/kg, po after 72 hrs by autoradiography; format: ADME, organism-based; set-up: dose 30 mg/kg, route oral; settings: in vivo
[6] = Drug excretion in bile duct-intact Sprague-Dawley rat feces at 30 mg/kg, po after 48 hrs by liquid scintillation counting; format: ADME, organism-based; set-up: dose 30 mg/kg, route oral; settings: in vivo
[7] = Drug excretion in bile duct-intact Sprague-Dawley rat urine at 30 mg/kg, po after 48 hrs by liquid scintillation counting; format: ADME, organism-based; set-up: dose 30 mg/kg, route oral; settings: in vivo
[8] = Drug excretion in bile duct-cannulated Sprague-Dawley rat bile at 30 mg/kg, po after 48 hrs by liquid scintillation counting; format: ADME, organism-based; set-up: dose 30 mg/kg, route oral; settings: in vivo
[9] = Drug excretion in bile duct-intact Beagle dog feces at 30 mg/kg, po after 72 hrs by liquid scintillation counting; format: ADME, organism-based, Canis lupus familiaris; set-up: dose 30 mg/kg, route oral; settings: in vivo
[10] = Drug excretion in bile duct-intact Beagle dog urine at 30 mg/kg, po after 72 hrs by liquid scintillation counting; format: ADME, organism-based, Canis lupus familiaris; set-up: dose 30 mg/kg, route oral; settings: in vivo
[11] = Drug excretion in bile duct-cannulated Beagle dog bile at 30 mg/kg, po after 168 hrs by liquid scintillation counting; format: ADME, organism-based, Canis lupus familiaris; set-up: dose 30 mg/kg, route oral; settings: in vivo
[12] = Ratio of drug level in blood to plasma in CD1 mouse at 10 uM after 30 mins; format: ADME
[13] = Ratio of drug level in blood to plasma in Sprague-Dawley rat at 1 uM after 30 mins; format: ADME
[14] = Ratio of drug level in blood to plasma in Sprague-Dawley rat at 5 uM after 30 mins; format: ADME
[15] = Ratio of drug level in blood to plasma in Sprague-Dawley rat at 10 uM after 30 mins; format: ADME
[16] = Ratio of drug level in blood to plasma in beagle dog at 1 uM after 30 mins; format: ADME, Canis lupus familiaris
[17] = Ratio of drug level in blood to plasma in beagle dog at 5 uM after 30 mins; format: ADME, Canis lupus familiaris
[18] = Ratio of drug level in blood to plasma in beagle dog at 10 uM after 30 mins; format: ADME, Canis lupus familiaris
[19] = Ratio of drug level in blood to plasma in cynomolgus monkey at 1 uM after 30 mins; format: ADME, Macaca fascicularis
[20] = Ratio of drug level in blood to plasma in cynomolgus monkey at 5 uM after 30 mins; format: ADME, Macaca fascicularis
[21] = Ratio of drug level in blood to plasma in cynomolgus monkey at 10 uM after 30 mins; format: ADME, Macaca fascicularis
[22] = Ratio of drug level in blood to plasma in human at 1 uM after 30 mins; format: ADME
[23] = Ratio of drug level in blood to plasma in human at 5 uM after 30 mins; format: ADME
[24] = Ratio of drug level in blood to plasma in human at 10 uM after 30 mins; format: ADME
[25] = Percentage unbound in mouse plasma at 1 uM after 5 hrs by equilibrium dialysis; format: ADME, cell-free
[26] = Percentage unbound in mouse plasma at 5 uM after 5 hrs by equilibrium dialysis; format: ADME, cell-free
[27] = Percentage unbound in mouse plasma at 10 uM after 5 hrs by equilibrium dialysis; format: ADME, cell-free
[28] = Percentage unbound in rat plasma at 1 uM after 5 hrs by equilibrium dialysis; format: ADME, cell-free
[29] = Percentage unbound in rat plasma at 5 uM after 5 hrs by equilibrium dialysis; format: ADME, cell-free
[30] = Percentage unbound in rat plasma at 10 uM after 5 hrs by equilibrium dialysis; format: ADME, cell-free
[31] = Percentage unbound in dog plasma at 1 uM after 5 hrs by equilibrium dialysis; format: ADME, cell-free, Canis lupus familiaris
[32] = Percentage unbound in dog plasma at 5 uM after 5 hrs by equilibrium dialysis; format: ADME, cell-free, Canis lupus familiaris
[33] = Percentage unbound in dog plasma at 10 uM after 5 hrs by equilibrium dialysis; format: ADME, cell-free, Canis lupus familiaris
[34] = Percentage unbound in cynomolgus monkey plasma at 1 uM after 5 hrs by equilibrium dialysis; format: ADME, cell-free, Macaca fascicularis
[35] = Percentage unbound in cynomolgus monkey plasma at 5 uM after 5 hrs by equilibrium dialysis; format: ADME, cell-free, Macaca fascicularis
[36] = Percentage unbound in cynomolgus monkey plasma at 10 uM after 5 hrs by equilibrium dialysis; format: ADME, cell-free, Macaca fascicularis
[37] = Percentage unbound in human plasma at 1 uM after 5 hrs by equilibrium dialysis; format: ADME, cell-free
[38] = Percentage unbound in human plasma at 5 uM after 5 hrs by equilibrium dialysis; format: ADME, cell-free
[39] = Percentage unbound in human plasma at 10 uM after 5 hrs by equilibrium dialysis; format: ADME, cell-free
[40] = Percentage unbound in human alpha-1-acid glycoprotein at 1 uM after 5 hrs by equilibrium dialysis; format: ADME
[41] = Percentage unbound in human alpha-1-acid glycoprotein at 5 uM after 5 hrs by equilibrium dialysis; format: ADME
[42] = Percentage unbound in human alpha-1-acid glycoprotein at 10 uM after 5 hrs by equilibrium dialysis; format: ADME
Albumin [43] = molecular target: T1, Albumin (Homo sapiens, UniProt P02768); assay: Percentage unbound in human serum albumin at 1 uM after 5 hrs by equilibrium dialysis; format: ADME
T1 sequence (P02768 whole entry): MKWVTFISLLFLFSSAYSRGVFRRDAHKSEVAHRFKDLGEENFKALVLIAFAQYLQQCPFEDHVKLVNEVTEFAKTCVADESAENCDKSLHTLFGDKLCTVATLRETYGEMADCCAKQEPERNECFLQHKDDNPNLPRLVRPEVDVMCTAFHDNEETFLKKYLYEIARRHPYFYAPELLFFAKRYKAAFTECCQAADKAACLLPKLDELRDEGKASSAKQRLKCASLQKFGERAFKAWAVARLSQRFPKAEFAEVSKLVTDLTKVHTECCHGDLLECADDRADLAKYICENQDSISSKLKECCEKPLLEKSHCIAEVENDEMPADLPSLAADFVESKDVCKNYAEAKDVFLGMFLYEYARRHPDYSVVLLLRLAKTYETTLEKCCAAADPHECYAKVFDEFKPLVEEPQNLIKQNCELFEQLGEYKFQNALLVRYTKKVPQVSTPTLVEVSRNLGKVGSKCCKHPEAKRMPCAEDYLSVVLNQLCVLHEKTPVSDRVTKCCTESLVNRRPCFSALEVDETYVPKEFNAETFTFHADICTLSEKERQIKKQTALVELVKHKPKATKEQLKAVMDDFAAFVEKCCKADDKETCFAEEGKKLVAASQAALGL

Albumin [44] = molecular target: T1, Albumin; assay: Percentage unbound in human serum albumin at 5 uM after 5 hrs by equilibrium dialysis; format: ADME
Albumin [45] = molecular target: T1, Albumin; assay: Percentage unbound in human serum albumin at 10 uM after 5 hrs by equilibrium dialysis; format: ADME
[46] = Ratio of drug level in blood to plasma in CD1 mouse at 1 uM after 30 mins; format: ADME
[47] = Ratio of drug level in blood to plasma in CD1 mouse at 5 uM after 30 mins; format: ADME

Ratio [1]: 72
SMILES: C[C@H]1O[C@@H](O[C@H]2[C@@H](O)C[C@H](O[C@H]3[C@@H](O)C[C@H](O[C@H]4CC[C@@]5(C)[C@H](CC[C@@H]6[C@@H]5C[C@@H](O)[C@]5(C)[C@@H](C7=CC(=O)OC7)CC[C@]65O)C4)O[C@@H]3C)O[C@@H]2C)C[C@H](O)[C@@H]1O [DIGOXIN]

Drug uptake (Liver [2]): Active | Drug uptake (Large intestine): Active | Drug uptake (Lung): Active | Drug uptake (Adrenal gland): Active | Drug uptake [3]: Active | Drug uptake (Cerebrum): Active | Drug uptake (Liver [4]): Active | Drug uptake (Kidney): Active | Drug uptake (Intestine): Active | Drug uptake [5]: Active | Drug excretion [6]: 85% | Drug excretion [7]: 2.2% | Drug excretion [8]: 74% | Drug excretion [9]: 80% | Drug excretion [10]: 6.3% | Drug excretion [11]: 65% | blood plasma ratio at 0.5 h, 10 µM [12]: 1.27 | blood plasma ratio at 0.5 h, 1 µM [13]: 1.36 | blood plasma ratio at 0.5 h, 5 µM [14]: 1.37 | blood plasma ratio at 0.5 h, 10 µM [15]: 1.51 | blood plasma ratio at 0.5 h, 1 µM [16]: 0.632 | blood plasma ratio at 0.5 h, 5 µM [17]: 0.752 | blood plasma ratio at 0.5 h, 10 µM [18]: 0.936 | blood plasma ratio at 0.5 h, 1 µM [19]: 1.57 | blood plasma ratio at 0.5 h, 5 µM [20]: 1.64 | blood plasma ratio at 0.5 h, 10 µM [21]: 1.82 | blood plasma ratio at 0.5 h, 1 µM [22]: 0.933 | blood plasma ratio at 0.5 h, 5 µM [23]: 0.945 | blood plasma ratio at 0.5 h, 10 µM [24]: 1.05 | fraction unbound at 5 h, 1 µM [25]: 0.041 | fraction unbound at 5 h, 5 µM [26]: 0.034 | fraction unbound at 5 h, 10 µM [27]: 0.033 | fraction unbound at 5 h, 1 µM [28]: 0.028 | fraction unbound at 5 h, 5 µM [29]: 0.035 | fraction unbound at 5 h, 10 µM [30]: 0.037 | fraction unbound at 5 h, 1 µM [31]: 0.007 | fraction unbound at 5 h, 5 µM [32]: 0.012 | fraction unbound at 5 h, 10 µM [33]: 0.014 | fraction unbound at 5 h, 1 µM [34]: 0.045 | fraction unbound at 5 h, 5 µM [35]: 0.044 | fraction unbound at 5 h, 10 µM [36]: 0.048 | fraction unbound at 5 h, 1 µM [37]: 0.052 | fraction unbound at 5 h, 5 µM [38]: 0.065 | fraction unbound at 5 h, 10 µM [39]: 0.058 | fraction unbound at 5 h, 1 µM [40]: 0.044 | fraction unbound at 5 h, 5 µM [41]: 0.042 | fraction unbound at 5 h, 10 µM [42]: 0.053 | fraction unbound at 5 h, 1 µM (Albumin [43]): 0.469 | fraction unbound at 5 h, 5 µM (Albumin [44]): 0.408 | fraction unbound at 5 h, 10 µM (Albumin [45]): 0.408 | blood plasma ratio at 0.5 h, 1 µM [46]: 1.16 | blood plasma ratio at 0.5 h, 5 µM [47]: 1.19
SMILES: O=C(c1ccc(F)c(F)c1N[14c]1[14cH][14cH][14c](I)[14cH][14c]1F)N1CC(O)([C@@H]2CCCCN2)C1
